From patent US9505742B2, “3,4-dihydro-2H-isoquinoline-1-one and 2,3-dihydro-isoindol-1-one compounds” (Hoffmann-La Roche Inc., priority 2013, dated 2016)
pEC50: −log10 of the molar value.

How the values were obtained:
human CYP11B2 = target: T1, human CYP11B2 (Homo sapiens, UniProt P19099); experiment: G-402 cellular enzyme assay, human CYP11B2 (aldosterone release, HTRF); assay type: cell-based; settings: G-402 cells expressing human CYP11B2; 1 μM Deoxycorticosterone
T1 construct: The expression plasmids contains the ORF for either human/cyno CYP11B1 or CYP11B2; expressed in transfected cells
T1 sequence (P19099 25-503): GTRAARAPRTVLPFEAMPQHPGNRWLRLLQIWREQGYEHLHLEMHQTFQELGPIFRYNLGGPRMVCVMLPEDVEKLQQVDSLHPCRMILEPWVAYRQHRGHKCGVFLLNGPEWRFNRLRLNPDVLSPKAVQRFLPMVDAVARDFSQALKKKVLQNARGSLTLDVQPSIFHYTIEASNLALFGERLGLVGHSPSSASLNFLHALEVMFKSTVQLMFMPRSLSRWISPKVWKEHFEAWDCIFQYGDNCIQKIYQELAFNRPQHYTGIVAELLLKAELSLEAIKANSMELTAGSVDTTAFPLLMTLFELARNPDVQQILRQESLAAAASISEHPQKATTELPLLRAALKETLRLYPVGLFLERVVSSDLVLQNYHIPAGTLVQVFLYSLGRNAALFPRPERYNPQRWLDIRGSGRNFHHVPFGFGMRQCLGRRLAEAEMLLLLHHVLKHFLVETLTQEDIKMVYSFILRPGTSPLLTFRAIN
Text: (§1) Herein we identified the use of the G-402 cell line as a host cell to ectopically express (transiently or stably) enzymes of the CYP11 family. Specifically we developed stable G-402 cells expressing ectopically human CYP11B1, human CYP11B2, human CYP11A1, cynmolgus CYP11B1 or cynomolgus CYP11B2 enzyme activity. Importantly the identified cell line G-402 expresses co-factors (adrenodoxin and adrenodoxin reductase) important for the activity of the CYP11 family and no relevant enzyme activity of the CYP11 family (in comparison to H295R cells) was detected in these cells. Therefore the G-402 cell line is uniquely suited as a host cell for the ectopic expression of enzymes from the CYP11 family. G-402 cells can be obtained from ATCC (CRL-1440) and were originally derived from a renal leiomyoblastoma.
(§2) The expression plasmids contains the ORF for either human/cyno CYP11B1 or CYP11B2 under the control of a suitable promoter (CMV-promoter) and a suitable resistance marker (neomycin). Using standard techniques the expression plasmid is transfected into G-402 cells and these cells are then selected for expressing the given resistance markers. Individual cell-clones are then selected and assessed for displaying the desired enzymatic activity using 11-Deoxycorticosterone (Cyp11B2) or 11-Deoxycortisol (Cyp11B) as a substrate.
(§3) G-402 cells expressing CYP11 constructs were established as described above and maintained in McCoy's 5a Medium Modified, ATCC Catalog No. 30-2007 containing 10% FCS and 400 μg/ml G418 (Geneticin) at 37° C. under an atmosphere of 5% CO2/95% air. Cellular enzyme assays were performed in DMEM/F12 medium containing 2.5% charcoal treated FCS and appropriate concentration of substrate (0.3-10 uM 11-Deoxycorticosterone, 11-Deoxycortisol or Corticosterone). For assaying enzymatic activity, cells were plated onto 96 well plates and incubated for 16 h. An aliquot of the supernatant is then transferred and analyzed for the concentration of the expected product (Aldosterone for CYP11B2; Cortisol for CYP11B1). The concentrations of these steroids can be determined using HTRF assays from CisBio analyzing either Aldosterone or Cortisol.
(§4) Inhibition of the release of produced steroids can be used as a measure of the respective enzyme inhibition by test compounds added during the cellular enzyme assay. The dose dependent inhibition of enzymatic activity by a compound is calculated by means of plotting added inhibitor concentrations (x-axes) vs. measured steroid/product level (y-axes). The inhibition is then calculated by fitting the following 4-parameter sigmoidal function (Morgan-Mercer-Flodin (MMF) model) to the raw data points using the least squares method:
(§5) [formula] wherein, A is the maximum y value, B is the EC50 factor determined using XLFit, C is the minimum y value and D is the slope value.
(§6) EC50 values for compounds claimed herein were tested with the G402-based assay system described. Cyp11B2 enzyme activity was tested in presence of 1 μM Deoxycorticosterone and variable amounts of inhibitors; Cyp11B1 enzyme activity was tested in presence of 1 μM Deoxycortisol and variable amounts of inhibitors.

human CYP11B1 = target: T2, human CYP11B1 (Homo sapiens, UniProt P15538); experiment: G-402 cellular enzyme assay, human CYP11B1 (cortisol release, HTRF); assay type: cell-based; settings: G-402 cells expressing human CYP11B1; 1 μM Deoxycortisol
T2 construct: The expression plasmids contains the ORF for either human/cyno CYP11B1 or CYP11B2; expressed in transfected cells
T2 sequence (P15538 25-503): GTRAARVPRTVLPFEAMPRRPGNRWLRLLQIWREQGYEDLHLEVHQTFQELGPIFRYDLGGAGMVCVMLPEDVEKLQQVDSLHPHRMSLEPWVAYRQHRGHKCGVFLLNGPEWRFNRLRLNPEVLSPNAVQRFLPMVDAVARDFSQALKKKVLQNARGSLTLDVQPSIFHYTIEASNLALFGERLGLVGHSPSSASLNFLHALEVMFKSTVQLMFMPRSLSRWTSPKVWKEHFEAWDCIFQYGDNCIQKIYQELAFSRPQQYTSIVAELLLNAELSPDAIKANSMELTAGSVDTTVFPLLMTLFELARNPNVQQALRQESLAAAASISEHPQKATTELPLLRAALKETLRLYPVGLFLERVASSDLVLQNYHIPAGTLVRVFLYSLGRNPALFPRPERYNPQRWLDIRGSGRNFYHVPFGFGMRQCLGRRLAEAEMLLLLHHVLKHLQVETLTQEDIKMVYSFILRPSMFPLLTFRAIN
Text: as §1, §2, §3, §4, §5, §6

Row | pEC50 (human CYP11B2) | pEC50 (human CYP11B1) | SMILES
1 | 7.89 | 6.31 | CCCS(=O)(=O)N1CC(c2cncc(N3C(=O)c4ccc(Cl)cc4C3(C)C)c2)C1 [Example 34, 5-Chloro-3,3-dimethyl-2-[5-(1-propylsulfonylazetidin-3-yl)pyridin-3-yl]isoindol-1-one]
2 | 8.10 | 6.49 | CC1(C)c2cc(Cl)ccc2C(=O)N1c1cncc(C2CN(S(=O)(=O)C3CC3)C2)c1 [Example 35, 5-Chloro-2-[5-(1-cyclopropylsulfonylazetidin-3-yl)pyridin-3-yl]-3,3-dimethylisoindol-1-one]
3 | 6.82 | 5.88 | COc1ccc2c(n1)C(C)(C)N(c1cncc(C3CCN(C(=O)c4cnccc4C)CC3)c1)C2=O [Example 49, 2-Methoxy-7,7-dimethyl-6-[5-[1-(4-methylpyridine-3-carbonyl)-4-piperidyl]-3-pyridyl]pyrrolo[3,4-b]pyridin-5-one]
4 | 7.64 | 5.72 | CCS(=O)(=O)N1CCC(c2cncc(N3C(=O)c4ccc(OC)nc4C3(C)C)c2)CC1 [Example 46, 6-[5-(1-Ethylsulfonyl-4-piperidyl)-3-pyridyl]-2-methoxy-7,7-dimethyl-pyrrolo[3,4-b]pyridin-5-one]
5 | 8.40 | 8.10 | COc1ccc2c(n1)C(C)(C)N(c1cncc(C3(F)CCN(C(=O)c4nccn4C)CC3)c1)C2=O [Example 44, 6-[5-[4-Fluoro-1-(1-methylimidazole-2-carbonyl)-4-piperidyl]-3-pyridyl]-2-methoxy-7,7-dimethyl-pyrrolo[3,4-b]pyridin-5-one]
6 | 8.82 | 6.11 | CC(C)S(=O)(=O)N1CCC(F)(c2cncc(N3C(=O)c4ccc(Cl)cc4C3(C)C)c2)CC1 [Example 31, 5-Chloro-2-[5-(4-fluoro-1-propan-2-ylsulfonylpiperidin-4-yl)pyridin-3-yl]-3,3-dimethylisoindol-1-one]
7 | 7.39 | 6.24 | COc1ccc2c(n1)C(C)(C)N(c1cncc(C3CCN(C(=O)c4cnn(C)c4)CC3)c1)C2=O [Example 47, 2-Methoxy-7,7-dimethyl-6-[5-[1-(1-methylpyrazole-4-carbonyl)-4-piperidyl]-3-pyridyl]pyrrolo[3,4-b]pyridin-5-one]

The next lines start with the compound.

Row | SMILES | pEC50 (human CYP11B2) | pEC50 (human CYP11B1)
8 | Cc1ccncc1C(=O)N1CCC(c2cncc(N3C(=O)c4ccc(Cl)cc4[C@H]3C)c2)CC1 (single isomer, unassigned) [Example 28, (+)-(3R or 3S)-5-chloro-3-methyl-2-[5-[1-(4-methylpyridine-3-carbonyl)piperidin-4-yl]pyridin-3-yl]-3H-isoindol-1-one] | 8.40 | 6.78
9 | CCS(=O)(=O)N1CCCC(c2cncc(N3C(=O)c4ccc(Cl)cc4C3(C)C)c2)C1 (stereo not shown) [Example 4, 5-Chloro-2-[5-(1-ethylsulfonylpiperidin-3-yl)pyridin-3-yl]-3,3-dimethylisoindol-1-one] | 8.22 | 6.22
10 | CC(C)S(=O)(=O)N1CCC(c2cncc(N3C(=O)c4ccc(Cl)cc4C3(C)C)c2)CC1 [Example 16, 5-Chloro-3,3-dimethyl-2-[5-(1-propan-2-ylsulfonylpiperidin-4-yl)pyridin-3-yl]isoindol-1-one] | 8.40 | 5.92
11 | CC(C)S(=O)(=O)N1CCC(c2cncc(N3C(=O)c4ccc(Cl)cc4[C@@H]3C)c2)CC1 (single isomer, unassigned) [Example 27, (−)-(3S or 3R)-5-chloro-3-methyl-2-[5-(1-propan-2-ylsulfonylpiperidin-4-yl)pyridin-3-yl]-3H-isoindol-1-one] | 9.00 | 6.28
12 | CCC(=O)N1CCC(c2cncc(N3C(=O)c4ccc(Cl)cc4C3(C)C)c2)CC1 [Example 1, 5-Chloro-3,3-dimethyl-2-[5-(1-propanoylpiperidin-4-yl)pyridin-3-yl]isoindol-1-one] | 8.30 | 6.62
13 | CC(C)S(=O)(=O)N1CCC(c2cncc(N3C(=O)c4ccc(Cl)cc4C3(C)C)c2)C1 (single isomer, unassigned; (+)) [Example 10, (+)-5-chloro-3,3-dimethyl-2-[5-[(3R or 3S)-1-propan-2-ylsulfonylpyrrolidin-3-yl]pyridin-3-yl]isoindol-1-one] | 8.70 | 7.03
14 | Cc1ccncc1C(=O)N1CCC(c2cncc(N3C(=O)c4ccc(Cl)cc4[C@@H]3C)c2)CC1 (single isomer, unassigned) [Example 29, (−)-(3S or 3R)-5-chloro-3-methyl-2-[5-[1-(4-methylpyridine-3-carbonyl)piperidin-4-yl]pyridin-3-yl]-3H-isoindol-1-one] | 8.05 | 6.93
15 | CC1(C)c2cc(Cl)ccc2C(=O)N1c1cncc(C2CCN(S(C)(=O)=O)CC2)c1 [Example 3, 5-Chloro-3,3-dimethyl-2-[5-(1-methylsulfonylpiperidin-4-yl)pyridin-3-yl]isoindol-1-one] | 8.70 | 7.28
16 | CC1(C)c2cc(Cl)ccc2C(=O)N1c1cncc(C2CCN(S(=O)(=O)C3CC3)C2)c1 (single isomer, unassigned; (+)) [Example 12, (+)-5-chloro-2-[5-[(3R or 3S)-1-cyclopropylsulfonylpyrrolidin-3-yl]pyridin-3-yl]-3,3-dimethylisoindol-1-one] | 8.70 | 7.12
17 | CC1(C)c2cc(Cl)ccc2C(=O)N1c1cncc(C2CCCN(S(C)(=O)=O)C2)c1 (single isomer, unassigned; (+)) [Example 5, (+)-5-chloro-3,3-dimethyl-2-[5-[(3R or 3S)-1-methylsulfonylpiperidin-3-yl]pyridin-3-yl]isoindol-1-one] | 8.30 | 6.67
18 | CC1(C)c2cc(Cl)ccc2C(=O)N1c1cncc(C2CCN(S(=O)(=O)C3CC3)C2)c1 (single isomer, unassigned; (-)) [Example 13, (−)-5-chloro-2-[5-[(3S or 3R)-1-cyclopropylsulfonylpyrrolidin-3-yl]pyridin-3-yl]-3,3-dimethylisoindol-1-one] | 7.72 | 6.02
19 | CC(C)S(=O)(=O)N1CCC(F)(c2cncc(N3C(=O)c4ccc(Cl)cc4C3(C)C)c2)C1 (stereo not shown) [Example 14, 5-Chloro-2-[5-(3-fluoro-1-propan-2-ylsulfonylpyrrolidin-3-yl)pyridin-3-yl]-3,3-dimethylisoindol-1-one] | 8.40 | 6.63
20 | CC1(C)c2cc(Cl)ccc2C(=O)N1c1cncc(C2CCN(S(=O)(=O)C3CC3)CC2)c1 [Example 17, 5-Chloro-2-[5-(1-cyclopropylsulfonylpiperidin-4-yl)pyridin-3-yl]-3,3-dimethylisoindol-1-one] | 8.52 | 6.00
